The test system of the assay is KM12-luc cells. The assay is described as follows: Cell proliferation and growth inhibition assay (CCK-8) in KM12-luc. The format is cell-based. The following applies: read-out: NTRK IC50 in KM12-luc. The protocol: MV-4-11 and H1975 cells were obtained from the American Type Culture Collection and KM12-luc cells were obtained from JCRB Cell Bank. All cell lines were maintained at 37° C. with 5% C02, in media supplemented with 10% fetal bovine serum and penicillin (100 units/mL) and streptomycin (100 μg/mL). MV-4-11 cells were maintained in Iscove's Modified Dubecco's Medium, H1975 cells were cultured with RPMI 1640 media, and KM12-luc cells were maintained in Dulbecco's Modification of Eagle's Medium. CCK-8 reagent was obtained from Yeasen. Cell proliferation was assessed by CCK-8 assay (Yeasen) per the manufacturer's instructions. […] Cell viability was assayed by incubating the cells with CCK-8 reagent for 1-4 hrs. Absorbance was measured at OD450 using the Beckman DTX880. The data was calculated using GraphPad Prism version 6.01. The IC50 values were fitted using a non-linear regression model with a sigmoidal dose response.

[1] abbreviates: KM12-Luc, 72 h, KM12-luc cells, treated with test compounds for 72 hrs, CCK-8 viability.

Read-outs that look alike come from different tables or passages of the source.

Take `CCC(=O)Nc1cccc(Nc2ncc(F)c(Nc3ccc(N4CCN(C(C)=O)CC4)c(F)c3)n2)c1` [Compound 158, N-(3-((4-((4-(4-acetylpiperazin-1-yl)-3-fluorophenyl)amino)-5-fluoropyrimidin-2-yl)amino)phenyl)propionamide]: the half-maximal inhibitory concentration (IC50) under setting [1] is more than 1000 nM.

In the case of `CCC(=O)Nc1cccc(Nc2ncc(Cl)c(Nc3ccc(N4CCNCC4)cc3OC)n2)c1` [Compound 160, N-(3-((5-chloro-4-((2-methoxy-4-(piperazin-1-yl)phenyl)amino)pyrimidin-2-yl)amino)phenyl)propionamide], the IC50 under setting [1] was found to be 210 nM.

On to `CCC(=O)Nc1cccc(Nc2ncc(Cl)c(Nc3ccc(N4CCN(C)CC4)cc3OC)n2)c1` [Compound 161, N-(3-((5-chloro-4-((2-methoxy-4-(4-methylpiperazin-1-yl)phenyl)amino)pyrimidin-2-yl)amino)phenyl)propionamide], for which the IC50 under setting [1] turned out to be 146 nM.

Turning to `CCC(=O)Nc1cccc(Nc2ncc(Cl)c(Nc3ccc(N4CCN(C(C)=O)CC4)cc3OC)n2)c1` [Compound 162, N-(3-((4-((4-(4-acetylpiperazin-1-yl)-2-methoxyphenyl)amino)-5-chloropyrimidin-2-yl)amino)phenyl)propionamide], the 50% inhibitory concentration (IC50) under setting [1] was determined as 129 nM.

For the compound `CCC(=O)Nc1cccc(Nc2ncc(Cl)c(Nc3ccc(C4CCCNC4)cc3OC)n2)c1` (stereo not drawn) [Compound 164, N-(3-((5-chloro-4-((2-methoxy-4-(piperidin-3-yl)phenyl)amino)pyrimidin-2-yl)amino)phenyl)propionamide], under setting [1], the concentration for half-maximal inhibition (IC50) was 50.5 nM.

Consider `CCC(=O)Nc1cccc(Nc2ncc(Cl)c(Nc3ccc(C4CCCN(C(C)=O)C4)cc3OC)n2)c1` (stereo not drawn) [Compound 165, N-(3-((4-((4-(1-acetylpiperidin-3-yl)-2-methoxyphenyl)amino)-5-chloropyrimidin-2-yl)amino)phenyl)propionamide], for which the 50% inhibitory concentration (IC50) under setting [1] stood at 171 nM.

For `COc1cc(N2CCN(C(C)=O)CC2)ccc1Nc1nc(Nc2cccc(NC(C)=O)c2)ncc1C(F)(F)F` [Compound 173, N-(3-((4-((4-(4-acetylpiperazin-1-yl)-2-methoxyphenyl)amino)-5-(trifluoromethyl)pyrimidin-2-yl)amino)phenyl)acetamide], the IC50 under setting [1] is 85.7 nM.

As for `CNc1cccc(Oc2nc(Nc3ccc(N4CCN(C)CC4)c(F)c3)nc3[nH]ccc23)c1` [Compound 177, N-(3-fluoro-4-(4-methylpiperazin-1-yl)phenyl)-4-(3-(methylamino)phenoxy)-7H-pyrrolo[2,3-d]pyrimidin-2-amine], under setting [1], the IC50 was determined as 132 nM.

For the compound `CN(C)CCN(C)c1ccc(Nc2nc(Oc3cccc(N)c3)c3cc[nH]c3n2)cc1F` [Compound 180, N^4-(4-(3-aminophenoxy)-7H-pyrrolo[2,3-d]pyrimidin-2-yl)-N^1-(2-(dimethylamino)ethyl)-2-fluoro-N1-methylbenzene-1,4-diamine], the IC50 under setting [1] is 3060 nM.

As to `CC(=O)Nc1cccc(Oc2nc(Nc3ccc(N(C)CCN(C)C)c(F)c3)nc3[nH]ccc23)c1` [Compound 181a, N-(3-((2-((4-((2-(dimethylamino)ethyl)(methyl)amino)-3-fluorophenyl)amino)-7H-pyrrolo[2,3-d]pyrimidin-4-yl)oxy)phenyl)acetamide], the 50% inhibitory concentration (IC50) under setting [1] was more than 10000 nM.

Take `CC(=O)Nc1cccc(Oc2nc(Nc3ccc4c(c3)[N+](C)(C)CCN4C)nc3[nH]ccc23)c1` [Compound 181b, 7-((4-(3-acetamidophenoxy)-7H-pyrrolo[2,3-d]pyrimidin-2-yl)amino)-1,1,4-trimethyl-1,2,3,4-tetrahydroquinoxalin-1-ium]: under “KM12-luc cells, treated with test compounds for 72 hrs, CCK-8 viability”, the IC50 was more than 10000 nM.

`CN(C)CCN(C)c1ccc(Nc2nc(Oc3cccc(N)c3)c3cc[nH]c3n2)cc1` [Compound 184, N^1-(4-(3-aminophenoxy)-7H-pyrrolo[2,3-d]pyrimidin-2-yl)-N^4-(2-(dimethylamino)ethyl)-N^4-methylbenzene-1,4-diamine]: the IC50 under setting [1] stood at 407 nM.

For `CC(=O)Nc1cc(Nc2nc(-c3c[nH]c4ccccc34)c3cc[nH]c3n2)ccc1N(C)CCN(C)C` [Compound 189, N-(5-((4-(1H-indol-3-yl)-7H-pyrrolo[2,3-d]pyrimidin-2-yl)amino)-2-((2-(dimethylamino)ethyl)(methyl)amino)phenyl)acetamide], the IC50 under setting [1] amounted to 28.7 nM.

As for `CC(=O)Nc1cc(Nc2nc(-c3cn(C)c4ccccc34)c3cc[nH]c3n2)cc(F)c1N(C)CCN(C)C` [Compound 190, N-(2-((2-(dimethylamino)ethyl)(methyl)amino)-3-fluoro-5-((4-(1-methyl-1H-indol-3-yl)-7H-pyrrolo[2,3-d]pyrimidin-2-yl)amino)phenyl)acetamide], the IC50 under setting [1] stood at 60.4 nM.

With `CNc1cc(Nc2nc(-c3cn(C)c4ccccc34)c3cc[nH]c3n2)ccc1N(C)CCN(C)C` [Compound 192, N^1-(2-(dimethylamino)ethyl)-N^1,N^2-dimethyl-N^4-(4-(1-methyl-1H-indol-3-yl)-7H-pyrrolo[2,3-d]pyrimidin-2-yl)benzene-1,2,4-triamine], the IC50 under setting [1] turned out to be 525 nM.

Turning to `CN(C)CCN(C)c1ccc(Nc2nc(-c3cn(C)c4ccccc34)c3cc[nH]c3n2)cc1NCC(F)(F)F` [Compound 194, N^1-(2-(dimethylamino)ethyl)-N^1-methyl-N^4-(4-(1-methyl-1H-indol-3-yl)-7H-pyrrolo[2,3-d]pyrimidin-2-yl)-N^2-(2,2,2-trifluoroethyl)benzene-1,2,4-triamine], under setting [1], the IC50 came to 722 nM.

Regarding `CCN(CCN(C)C)c1c(F)cc(Nc2nc(-c3cn(C)c4ccccc34)c3cc[nH]c3n2)cc1NC(C)=O` [Compound 195a, N-(2-((2-(dimethylamino)ethyl)(ethyl)amino)-3-fluoro-5-((4-(1-methyl-1H-indol-3-yl)-7H-pyrrolo[2,3-d]pyrimidin-2-yl)amino)phenyl)acetamide], under setting [1], the IC50 was found to be 153 nM.

Turning to `CCN(CCN(C)C)c1c(F)cc(Nc2nc(-c3cn(C)c4ccccc34)c3ccn(C)c3n2)cc1NC(C)=O` [Compound 195b, N-(2-((2-(dimethylamino)ethyl)(ethyl)amino)-3-fluoro-5-((7-methyl-4-(1-methyl-1H-indol-3-yl)-7H-pyrrolo[2,3-d]pyrimidin-2-yl)amino)phenyl)acetamide], the IC50 under setting [1] amounted to 561 nM.

`CCN(CCN(C)C)c1ccc(Nc2nc(-c3cn(C)c4ccccc34)c3cc[nH]c3n2)cc1NC` [Compound 197, N^1-(2-(dimethylamino)ethyl)-N^1-ethyl-N^2-methyl-N^4-(4-(1-methyl-1H-indol-3-yl)-7H-pyrrolo[2,3-d]pyrimidin-2-yl)benzene-1,2,4-triamine]: the IC50 under setting [1] is 376 nM.

Regarding `CN(C)CCN(C)c1ccc(Nc2nc(-c3cn(C)c4ccccc34)c3cc[nH]c3n2)cc1N` [Compound 204, N^1-(2-(dimethylamino)ethyl)-N^1-methyl-N^4-(4-(1-methyl-1H-indol-3-yl)-7H-pyrrolo[2,3-d]pyrimidin-2-yl)benzene-1,2,4-triamine], the IC50 under setting [1] was 45.8 nM.

Take `CC(=O)Nc1cc(Nc2nc(-c3cn(C)c4ccccc34)c3cc[nH]c3n2)ccc1N(C)CCN(C)C` [Compound 205a, N-(2-((2-(dimethylamino)ethyl)(methyl)amino)-5-((4-(1-methyl-1H-indol-3-yl)-7H-pyrrolo[2,3-d]pyrimidin-2-yl)amino)phenyl)acetamide]: the 50% inhibitory concentration (IC50) (KM12-Luc, 72 h) is 37 nM.

For `CCNc1cc(Nc2nc(-c3cn(C)c4ccccc34)c3cc[nH]c3n2)ccc1N(C)CCN(C)C` [Compound 205b, N^1-(2-(dimethylamino)ethyl)-N^2-ethyl-N1-methyl-N^4-(4-(1-methyl-1H-indol-3-yl)-7H-pyrrolo[2,3-d]pyrimidin-2-yl)benzene-1,2,4-triamine], the concentration for half-maximal inhibition (IC50) (KM12-Luc, 72 h) is 304 nM.

Regarding `CN(C)CCN(C)c1ccc(Nc2nc(-c3cn(C)c4ccccc34)c3cc[nH]c3n2)cc1NS(C)(=O)=O` [Compound 205c, N-(2-((2-(dimethylamino)ethyl)(methyl)amino)-5-((4-(1-methyl-1H-indol-3-yl)-7H-pyrrolo[2,3-d]pyrimidin-2-yl)amino)phenyl)methanesulfonamide], under setting [1], the IC50 worked out at 329 nM.

As for `CN(C)CCN(C)c1ccc(Nc2nc(-c3cn(C)c4ccccc34)c3cc[nH]c3n2)cc1S(C)(=O)=O` [Compound 206, N^1-(2-(dimethylamino)ethyl)-N^1-methyl-N^4-(4-(1-methyl-1H-indol-3-yl)-7H-pyrrolo[2,3-d]pyrimidin-2-yl)-2-(methylsulfonyl)benzene-1,4-diamine], the IC50 under setting [1] was 176 nM.

Regarding `CN(C)CCN(C)c1ccc(Nc2nc(-c3cn(C)c4ccccc34)c3cc[nH]c3n2)cc1N(C)C` [Compound 207, N^1-(2-(dimethylamino)ethyl)-N^1,N^2,N^2-trimethyl-N^4-(4-(1-methyl-1H-indol-3-yl)-7H-pyrrolo[2,3-d]pyrimidin-2-yl)benzene-1,2,4-triamine], the concentration for half-maximal inhibition (IC50) under setting [1] turned out to be 348 nM.

Consider `CCN(CCN(C)C)c1ccc(Nc2nc(-c3cn(C)c4ccccc34)c3cc[nH]c3n2)cc1F` [Compound 208, N^1-(2-(dimethylamino)ethyl)-N^1-ethyl-2-fluoro-N^4-(4-(1-methyl-1H-indol-3-yl)-7H-pyrrolo[2,3-d]pyrimidin-2-yl)benzene-1,4-diamine], for which, under setting [1], the IC50 turned out to be 381 nM.

For the compound `CCN(CCN(C)C)c1ccc(Nc2nc(-c3cn(C)c4ccccc34)c3cc[nH]c3n2)cc1N` [Compound 211, N^1-(2-(dimethylamino)ethyl)-N^1-ethyl-N^4-(4-(1-methyl-1H-indol-3-yl)-7H-pyrrolo[2,3-d]pyrimidin-2-yl)benzene-1,2,4-triamine], the half-maximal inhibitory concentration (IC50) under setting [1] came to 40.3 nM.

By IC50 is commonly meant the midpoint of a concentration-inhibition curve.
